Source: PubChem BioAssay (NCI)
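All cell lines were grown in 96-well plates and treated with compound for 48 hours. TGI is the concentration that stops growth completely.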

What was measured:
Assay in all cases: DTP human tumour cell line panel, 48 h
[1] = test system: 786-0 renal
[2] = test system: A549 NSCLC
[3] = test system: ACHN renal
[4] = test system: CAKI-1 renal
[5] = test system: CCRF-CEM leukemia
[6] = test system: COLO 205 colon
[7] = test system: DLD-1 colon
[8] = test system: DMS 114 small cell lung
[9] = test system: DMS 273 small cell lung
[10] = test system: EKVX NSCLC
[11] = test system: HCC-2998 colon
[12] = test system: HCT-116 colon
[13] = test system: HCT-15 colon
[14] = test system: HOP-62 NSCLC
[15] = test system: HOP-92 NSCLC
[16] = test system: IGROV1 ovarian
[17] = test system: K-562 leukemia
[18] = test system: KM12 colon
[19] = test system: KM20L2 colon
[20] = test system: LOX IMVI melanoma
[21] = test system: LXFL 529 NSCLC
[22] = test system: M19-MEL melanoma
[23] = test system: MOLT-4 leukemia
[24] = test system: NCI-H226 lung
[25] = test system: NCI-H23 lung
[26] = test system: NCI-H522 lung
[27] = test system: OVCAR-3 ovarian
[28] = test system: OVCAR-4 ovarian
[29] = test system: OVCAR-5 ovarian
[30] = test system: OVCAR-8 ovarian
[31] = test system: RPMI-8226 leukemia
[32] = test system: RXF 393 renal
[33] = test system: RXF-631 renal
[34] = test system: SF-268 CNS
[35] = test system: SF-295 CNS
[36] = test system: SF-539 CNS
[37] = test system: SK-MEL-2 melanoma
[38] = test system: SK-MEL-28 melanoma
[39] = test system: SK-MEL-5 melanoma
[40] = test system: SK-OV-3 ovarian
[41] = test system: SN12C renal
[42] = test system: SNB-19 CNS
[43] = test system: SR leukemia
[44] = test system: SW-620 colon
[45] = test system: TK-10 renal
[46] = test system: U251 CNS
[47] = test system: UACC-62 melanoma
[48] = test system: UO-31 renal
[49] = test system: A498 renal
[50] = test system: HL-60(TB) leukemia
[51] = test system: HOP-18 NSCLC
[52] = test system: HT29 colon
[53] = test system: M14 melanoma
[54] = test system: MALME-3M melanoma
[55] = test system: NCI-H460 lung
[56] = test system: SNB-75 CNS
[57] = test system: SNB-78 CNS
[58] = test system: UACC-257 melanoma
[59] = test system: XF 498 CNS

How did the TGI [1] turn out when `COc1ccc(NC(=O)CC(=O)n2nc(-c3ccccc3)c(N=Nc3ccccc3C(=O)O)c2-c2ccccc2)cc1` was run?
The TGI was 70.8 µM.

And the TGI [2]?
Its TGI is > 100 µM.

What about the TGI [3] of the same molecule?
The TGI was > 100 µM.

And the TGI [4]?
The TGI was > 100 µM.

And the TGI [5]?
The TGI was > 100 µM.

And the TGI [6]?
The TGI was > 100 µM.

And the TGI [7]?
The TGI was > 100 µM.

And the TGI [8]?
The TGI was > 100 µM.

And the TGI [9]?
Its TGI is > 100 µM.

And the TGI [10]?
The TGI was > 100 µM.

What about the TGI [11] of the same molecule?
The TGI was > 100 µM.

What about the TGI [12] of the same molecule?
Its TGI is > 100 µM.

What about the TGI [13] of the same molecule?
The TGI was > 100 µM.

And the TGI [14]?
The TGI was > 100 µM.

And the TGI [15]?
The TGI was 41.4 µM.

What about the TGI [16] of the same molecule?
The TGI was > 100 µM.

And the TGI [17]?
The TGI was > 100 µM.

What about the TGI [18] of the same molecule?
Its TGI is > 100 µM.

And the TGI [19]?
Its TGI is > 100 µM.

And the TGI [20]?
Its TGI is > 100 µM.

What about the TGI [21] of the same molecule?
The TGI was > 100 µM.

And the TGI [22]?
Its TGI is > 100 µM.

What about the TGI [23] of the same molecule?
The TGI was > 100 µM.

What about the TGI [24] of the same molecule?
The TGI was > 100 µM.

And the TGI [25]?
The TGI was > 100 µM.

And the TGI [26]?
Its TGI is > 100 µM.

What about the TGI [27] of the same molecule?
The TGI was > 100 µM.

What about the TGI [28] of the same molecule?
The TGI was > 100 µM.

And the TGI [29]?
Its TGI is > 100 µM.

And the TGI [30]?
Its TGI is 78.9 µM.

What about the TGI [31] of the same molecule?
The TGI was > 100 µM.

What about the TGI [32] of the same molecule?
The TGI was 90.7 µM.

What about the TGI [33] of the same molecule?
The TGI was > 100 µM.

What about the TGI [34] of the same molecule?
The TGI was > 100 µM.

What about the TGI [35] of the same molecule?
The TGI was > 100 µM.

And the TGI [36]?
The TGI was > 100 µM.

What about the TGI [37] of the same molecule?
Its TGI is > 100 µM.

And the TGI [38]?
Its TGI is > 100 µM.

What about the TGI [39] of the same molecule?
The TGI was > 100 µM.

What about the TGI [40] of the same molecule?
The TGI was 31.8 µM.

What about the TGI [41] of the same molecule?
The TGI was > 100 µM.

What about the TGI [42] of the same molecule?
The TGI was > 100 µM.

What about the TGI [43] of the same molecule?
The TGI was > 100 µM.

And the TGI [44]?
The TGI was > 100 µM.

What about the TGI [45] of the same molecule?
Its TGI is > 100 µM.

And the TGI [46]?
The TGI was > 100 µM.

What about the TGI [47] of the same molecule?
The TGI was > 100 µM.

And the TGI [48]?
The TGI was > 100 µM.

For `CN(C)CCN(C)CCC(=O)/C=C/c1ccccc1`, which TGI [1] is on record?
The TGI was 29.9 µM.

What about the TGI [49] of the same molecule?
Its TGI is > 100 µM.

And the TGI [2]?
Its TGI is > 100 µM.

And the TGI [3]?
The TGI was > 69.9 µM.

What about the TGI [4] of the same molecule?
The TGI was 49.9 µM.

What about the TGI [5] of the same molecule?
Its TGI is 23 µM.

And the TGI [6]?
The TGI was 36 µM.

And the TGI [7]?
Its TGI is 39.9 µM.

What about the TGI [8] of the same molecule?
Its TGI is > 66.3 µM.

What about the TGI [9] of the same molecule?
The TGI was 34 µM.

What about the TGI [10] of the same molecule?
Its TGI is > 93.8 µM.

What about the TGI [11] of the same molecule?
Its TGI is > 69.6 µM.

And the TGI [12]?
Its TGI is 31.4 µM.

What about the TGI [13] of the same molecule?
The TGI was 50.1 µM.

What about the TGI [50] of the same molecule?
Its TGI is 53.5 µM.

And the TGI [51]?
The TGI was > 100 µM.

What about the TGI [14] of the same molecule?
Its TGI is > 100 µM.

What about the TGI [15] of the same molecule?
The TGI was 56.9 µM.

And the TGI [52]?
The TGI was 41.2 µM.

And the TGI [16]?
The TGI was > 68.2 µM.

And the TGI [17]?
The TGI was > 52.8 µM.

And the TGI [18]?
Its TGI is 52.5 µM.

And the TGI [19]?
The TGI was > 100 µM.

What about the TGI [20] of the same molecule?
Its TGI is > 100 µM.

And the TGI [21]?
The TGI was 32.6 µM.

What about the TGI [53] of the same molecule?
The TGI was 40.6 µM.

And the TGI [22]?
The TGI was 40.9 µM.

And the TGI [54]?
Its TGI is 35.6 µM.

And the TGI [23]?
Its TGI is 27.2 µM.

What about the TGI [24] of the same molecule?
The TGI was > 88.7 µM.

And the TGI [25]?
The TGI was > 61.1 µM.

What about the TGI [55] of the same molecule?
Its TGI is > 100 µM.

What about the TGI [26] of the same molecule?
The TGI was 9.64 µM.

What about the TGI [27] of the same molecule?
Its TGI is > 61.4 µM.

What about the TGI [28] of the same molecule?
The TGI was > 61.2 µM.

What about the TGI [29] of the same molecule?
Its TGI is > 100 µM.

And the TGI [30]?
The TGI was 47.1 µM.

What about the TGI [31] of the same molecule?
Its TGI is 6.54 µM.

What about the TGI [32] of the same molecule?
The TGI was 45.3 µM.

What about the TGI [34] of the same molecule?
The TGI was > 94.5 µM.

And the TGI [35]?
Its TGI is > 58.4 µM.

And the TGI [36]?
Its TGI is 39.6 µM.

And the TGI [37]?
The TGI was > 74.6 µM.

What about the TGI [38] of the same molecule?
Its TGI is 43.6 µM.

And the TGI [39]?
The TGI was > 62.1 µM.

And the TGI [40]?
Its TGI is > 100 µM.

And the TGI [41]?
The TGI was 48.5 µM.

And the TGI [42]?
The TGI was > 100 µM.

And the TGI [56]?
The TGI was > 60.8 µM.

And the TGI [57]?
Its TGI is > 77.6 µM.

And the TGI [43]?
Its TGI is 27.3 µM.

What about the TGI [44] of the same molecule?
The TGI was 37.7 µM.

And the TGI [45]?
Its TGI is > 63.9 µM.

And the TGI [46]?
The TGI was > 100 µM.

And the TGI [58]?
The TGI was 51.4 µM.

And the TGI [47]?
Its TGI is 71.4 µM.

And the TGI [48]?
The TGI was > 100 µM.

And the TGI [59]?
The TGI was 49.6 µM.
